# From publication PMC11568214, “The impact of 9-azaglycophymine and phenylguanidine derivatives on the proliferation of various breast cancer cell lines in vitro and in vivo” (Scientific Reports, 2024)
# Where two headings read alike, the source gives them in different places.
# Key:
# [1] = tested on: 4T1; test: Pan-caspase activation, ApoStat staining, flow cytometry; assay type: cell-based, mouse; parameters: key: ↑: induction; ↓: inhibition; ↔: no effect; details: 4T1, IC50 for 72 h
# Protocol: (§1) Cells were seeded in 6-well plates and incubated for 24 h under standard culture conditions. […] For the analyses of pan-caspase activation, the cell suspension was centrifuged for 3 min at 800 rpm, and the cell pellet was stained with 100 µL of ApoStat working solution (1 µL of ApoStat and 5% (v/v) FCS in 100 µL of PBS). Cells were incubated for 30 min under standard culture conditions. The cell suspension was centrifuged for 3 min at 800 rpm, and the cell pellet was washed with 1 mL of fresh PBS. Finally, all samples were analyzed by using flow cytometry (FACSAria III, BD Biosciences, New Jersey, USA).
# [2] = tested on: MCF-7; test: as above; assay type: cell-based, human; parameters: key: ↑: induction; ↓: inhibition; ↔: no effect; details: MCF-7, IC50 for 72 h
# Protocol: as §1
# [3] = tested on: HCC1937; test: as above; assay type: cell-based, human; parameters: key: ↑: induction; ↓: inhibition; ↔: no effect; details: HCC1937, IC50 for 72 h
# Protocol: as §1
# [4] = tested on: BT-474; test: as above; assay type: cell-based, human; parameters: key: ↑: induction; ↓: inhibition; ↔: no effect; details: BT-474, IC50 for 72 h
# Protocol: as §1
# [5] = tested on: MDA-MB-468; test: as above; assay type: cell-based, human; parameters: key: ↑: induction; ↓: inhibition; ↔: no effect; details: MDA-MB-468, IC50 for 72 h
# Protocol: as §1
# [6] = tested on: 4T1; test: Apoptosis analysis, AnnV/PI staining, flow cytometry; assay type: cell-based, mouse; details: 4T1, IC50 for 72 h; control cells 31%
# Protocol: Cells were seeded in 6-well plates and incubated for 24 h under standard culture conditions. […] For apoptosis analyses, the cell suspension was centrifuged for 3 min at 800 rpm, and the cell pellet was stained by using 100 µL of AnnV/PI working solution (5 µL of AnnV, 2 µL of PI in 100 µL of PBS) for 15 min at RT and protected from light. The staining was terminated by the addition of 900 µL of annexin binding buffer. Finally, all samples were analyzed by using flow cytometry (FACSAria III, BD Biosciences, New Jersey, USA).
# [7] = tested on: MCF-7, MDA-MB-468, BT-474 and HCC1937 breast cancer cells; test: Fast screening / CV cell viability, breast cancer cell line panel; assay type: cell-based, human; parameters: reduction of cell viability: concentration or dose not given beside the values
# Protocol: For initial testing of the cytotoxic effect of the available glycophymine compounds (Table S2), cells were treated with compound in three concentrations: 1, 10 and 50 µM. Cells were seeded in 96-well plates and allowed to adhere overnight. Then they were treated for 72 h under standard culture conditions. […] For IC50 determination, the compounds were tested at seven concentrations (0.78, 1.56, 3.13, 6.25, 12.5, 25 and 50 µM). Subsequently, the cell viability was determined by using the crystal violet (CV) assay. Moreover, the selected compounds were tested against the mouse breast cancer cell line 4T1 (TNBC) as well. The compounds were prepared initially to obtain a stock solution of 20 mM in DMSO. Later, the working solutions were prepared by mixing the required amount of DMSO stock with the optimal medium for each cell line. The DMSO concentration in the final solution was always maintained lower than 0.5% to avoid any DMSO-derived side effects.
# For CV assays, after 72 h treatment, the treatment medium was discarded from the 96-well plates, and the cells were washed using 50 µL of PBS. Cells were fixed by adding 50 µL of 4% (v/v) paraformaldehyde (PFA) in PBS for 15 min at room temperature (RT). Afterwards, PFA was discarded, and the plates were dried for 15 min at RT. 50 µL of CV working solution (0.1% w/v CV in PBS) were added to the wells, followed by 15 min incubation at RT. Subsequently, the CV solution was discarded, and the plates were washed using aqua bidest. (ddH2O) to remove any remaining CV solution. The plates were left to dry overnight at RT, and then 50 µL of 33% (v/v) acetic acid in ddH2O were added to each well. Finally, the absorbance was measured at 570 nm by using a SpectraMax M5 plate reader (Molecular Devices, California, USA) and at 670 nm as background wavelength. […] Additionally, gefitinib, an approved EGFR inhibitor of the quinazoline family, was tested as anti-proliferative positive control. The data represent the mean ± standard deviation derived from three independent biological replicates. Dose–response curves were generated by four-parametric non-linear regression analysis using the GraphPad Prism software (version: 10.1, San Diego, CA, USA). Based on that, IC50 values and standard deviations were calculated for each replicate individually.
smiles,measurement,setting,value
"O=c1[nH]c(Nc2ccc([N+](=O)[O-])cc2)nc2ccccc12 [Compound 19, 4′-nitro-9-aza-glycophymine]",Pan-caspases,[1],↑
same,Pan-caspases,[2],↔
same,Pan-caspases,[3],↑
same,Pan-caspases,[4],↑
same,Pan-caspases,[5],↔
same,percentage of apoptotic cells,[6],69%
same,IC50,"[7]; 72 h, CV assay, across cell lines, read-out: IC50 values against the breast cancer cell lines",4 to 6 µM
same,concentration below which active in cytotoxicity screening,"[7]; 72 h, initial screening",below 10 µM
same,anti-proliferative / cytotoxic effect,"[7]; 72 h, screening at 1, 10 and 50 µM",significantly reduced cell proliferation
same,IC50,"[7]; Homo sapiens, 72 h, CV assay, across cell lines, read-out: IC50 values against the breast cancer cell lines",~4 µM
same,IC50,"[7]; Homo sapiens, 72 h, read-out: IC50 values (National Cancer Institute guideline criterion)",< 30 µg/mL
same,reduction of cell viability,"[7]; after 72 h of treatment, initial screening",≥ 50%
